Legend:
Format in all cases: biochemical
human MMP9 = target: T1, human MMP9 (Homo sapiens, UniProt P14780); assay: Selectivity assay MMP9
T1 construct: human MMP9 (Uniprot P14780), amino acids 1–707; made in house; host or cells: stably transfected 293 cells
Experimental: (§1) All biochemical assays were performed at room temperature in 384-well plates in a total volume of 25.25 μl per well. Test compounds were dissolved in 90% (v/v) DMSO/water. For the assays, 250 nl of compound solution was added per well, followed by addition of 12.5 μl protease solution. After 70 min of pre-incubation at room temperature, the reactions were started by addition of 12.5 μl substrate solution and followed either by measuring fluorescence intensity (rhodamine 110-based substrates) or by fluorescence lifetime (PT14-based substrates). The effect of compound on enzymatic activity was obtained from the linear part of the progress curves and determined after 1 h (t=60 min). The final compound concentrations ranged from 100 μM to 1 nM.
(§2) Matrix metalloproteinases. Human MMP1 (Uniprot P03956), amino acids 1–469, expressed in and purified from stable transfected C127 cells; human MMP2 (Uniprot P08253), amino acids 1–660, expressed in and purified from insect cells (baculovirus expression system); human MMP8 (Uniprot P22894), amino acids 100–262, expressed in and purified from E. coli; human MMP9 (Uniprot P14780), amino acids 1–707, expressed in and purified from stable transfected 293 cells; human MMP12 (Uniprot P39900), amino acids 101–268, expressed in and purified from E. coli; human MMP13 (Uniprot P45452), amino acids 103–274, expressed in and purified from E. coli; human MMP14 (Uniprot P50281), amino acids 112–284, expressed in and purified from E. coli; human ADAM17 (Uniprot P78536), amino acids 1–670, expressed in and purified from insect cells (baculovirus expression system); substrate: Ac-C(PT14)-[…]-NH2 purchased from Biosyntan (product number 8069); enzyme concentrations: 3 nM (MMP1), 1 nM (MMP2), 3 nM (MMP8), 0.1 nM (MMP9), 0.5 nM (MMP12), 0.13 nM (MMP13), 0.005 nM (MMP14), 30 nM (ADAM17); substrate concentration: 0.8 μM; assay buffer: 100 mM Tris, pH 7.4, 100 mM NaCl, 10 mM CaCl2, 10 μM ZnCl2, 0.075% (v/v) Brij35.

CSN5 = target: T2, CSN5 (Homo sapiens, UniProt Q92905); assay: CSN5 activity assay (CSN deneddylation, fluorescence polarization); conditions: JAMM domain protease; means±s.d.
T2 construct: made in house; host or cells: Sf21 insect cells, co-infection of separate baculoviruses
Experimental: Unlike the majority of proteases, it is not active as an individual subunit or as an isolated catalytic domain. […] For the identification of CSN inhibitors, we therefore conducted a high-throughput screening campaign using a biochemical assay with recombinant CSN and a fluorescence-labelled and NEDD8-modified CRL substrate[30][40] (PT22-NEDD8-SCF^Skp2; Supplementary Table 1).
The potency of CSN5 inhibitors was determined in a CSN activity assay using changes in fluorescence polarization as the readout. Reactions were carried out at room temperature in 384-well plates. […] The effect of compound on enzymatic activity was determined from the linear part of the progression curves by an end-point measurement of the fluorescence polarization at 590 nm after excitation at 540 nm using a PHERAstar plate reader (BMG LABTECH GmbH). IC50 values were calculated from the plot of percentage of inhibition versus inhibitor concentration using the non-linear regression analysis software Origin 7.5SR6 (OriginLab Corp.).

human MMP14 = target: T3, human MMP14 (Homo sapiens, UniProt P50281); assay: Selectivity assay MMP14
T3 construct: human MMP14 (Uniprot P50281), amino acids 112–284; made in house; host or cells: E. coli
Experimental: as §1, §2

human MMP2 = target: T4, human MMP2 (Homo sapiens, UniProt P08253); assay: Selectivity assay MMP2
T4 construct: human MMP2 (Uniprot P08253), amino acids 1–660; made in house; host or cells: insect cells (baculovirus)
T4 sequence (P08253 30-660): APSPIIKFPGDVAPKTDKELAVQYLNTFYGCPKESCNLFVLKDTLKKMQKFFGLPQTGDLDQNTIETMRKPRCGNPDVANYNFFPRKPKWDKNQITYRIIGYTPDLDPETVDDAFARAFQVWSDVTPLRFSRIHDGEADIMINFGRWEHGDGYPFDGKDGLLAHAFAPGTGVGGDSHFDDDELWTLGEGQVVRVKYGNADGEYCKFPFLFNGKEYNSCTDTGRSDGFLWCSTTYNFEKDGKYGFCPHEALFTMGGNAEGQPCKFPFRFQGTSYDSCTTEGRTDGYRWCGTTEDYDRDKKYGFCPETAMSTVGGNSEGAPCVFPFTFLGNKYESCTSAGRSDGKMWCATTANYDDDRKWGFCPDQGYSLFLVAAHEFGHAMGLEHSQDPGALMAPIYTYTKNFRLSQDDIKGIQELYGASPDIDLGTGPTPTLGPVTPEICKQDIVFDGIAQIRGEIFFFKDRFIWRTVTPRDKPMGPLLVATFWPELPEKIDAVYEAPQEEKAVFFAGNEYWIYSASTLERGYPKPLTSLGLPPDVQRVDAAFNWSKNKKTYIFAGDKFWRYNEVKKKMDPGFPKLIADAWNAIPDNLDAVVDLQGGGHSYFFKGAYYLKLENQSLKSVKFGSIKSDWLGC
Experimental: as §1, §2

human MMP12 = target: T5, human MMP12 (Homo sapiens, UniProt P39900); assay: Selectivity assay MMP12
T5 construct: human MMP12 (Uniprot P39900), amino acids 101–268; made in house; host or cells: E. coli
Experimental: as §1, §2

human MMP13 = target: T6, human MMP13 (Homo sapiens, UniProt P45452); assay: Selectivity assay MMP13
T6 construct: human MMP13 (Uniprot P45452), amino acids 103–274; made in house; host or cells: E. coli
Experimental: as §1, §2

human MMP8 = target: T7, human MMP8 (Homo sapiens, UniProt P22894); assay: Selectivity assay MMP8
T7 construct: human MMP8 (Uniprot P22894), amino acids 100–262; made in house; host or cells: E. coli
Experimental: as §1, §2

Human AMSHLP = target: T8, Human AMSHLP (Homo sapiens, UniProt Q96FJ0); assay: Selectivity assay AMSHLP (ubiquitin-rhodamine110-glycine substrate); conditions: JAMM domain protease
T8 construct: made in house; host or cells: E. coli
T8 sequence (Q96FJ0 1-436): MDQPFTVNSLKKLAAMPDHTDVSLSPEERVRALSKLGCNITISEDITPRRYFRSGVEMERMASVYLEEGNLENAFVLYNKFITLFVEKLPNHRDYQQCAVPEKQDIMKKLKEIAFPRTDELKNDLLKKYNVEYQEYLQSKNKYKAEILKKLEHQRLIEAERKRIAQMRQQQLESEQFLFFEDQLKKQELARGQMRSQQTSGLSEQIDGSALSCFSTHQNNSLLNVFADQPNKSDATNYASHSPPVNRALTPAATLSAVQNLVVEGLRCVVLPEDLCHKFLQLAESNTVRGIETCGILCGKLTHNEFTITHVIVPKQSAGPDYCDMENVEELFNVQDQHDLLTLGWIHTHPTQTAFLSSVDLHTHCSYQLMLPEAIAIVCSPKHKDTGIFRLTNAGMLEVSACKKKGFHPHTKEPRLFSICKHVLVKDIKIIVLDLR
Experimental: as §1
Human AMSHLP. Enzyme was expressed in and purified from E. coli; substrate: ubiquitin-rhodamine110-glycine was purchased from emp Biotech GmbH (Berlin, Germany; product number AS 09/12-A4); enzyme concentration: 4 nM; substrate concentration: 200 nM; assay buffer: 100 mM Tris/HCl at pH 7.5, 10 mM CaCl2, 100 mM NaCl, 10 μM ZnCl2, 0.005% (v/v) BRIJ 35 and 5 mM dithioerythritol (DTE).

human ADAM17 = target: T9, human ADAM17 (Homo sapiens, UniProt P78536); assay: Selectivity assay ADAM17
T9 construct: human ADAM17 (Uniprot P78536), amino acids 1–670; made in house; host or cells: insect cells (baculovirus)
Experimental: as §1, §2

T1 sequence (P14780 20-707): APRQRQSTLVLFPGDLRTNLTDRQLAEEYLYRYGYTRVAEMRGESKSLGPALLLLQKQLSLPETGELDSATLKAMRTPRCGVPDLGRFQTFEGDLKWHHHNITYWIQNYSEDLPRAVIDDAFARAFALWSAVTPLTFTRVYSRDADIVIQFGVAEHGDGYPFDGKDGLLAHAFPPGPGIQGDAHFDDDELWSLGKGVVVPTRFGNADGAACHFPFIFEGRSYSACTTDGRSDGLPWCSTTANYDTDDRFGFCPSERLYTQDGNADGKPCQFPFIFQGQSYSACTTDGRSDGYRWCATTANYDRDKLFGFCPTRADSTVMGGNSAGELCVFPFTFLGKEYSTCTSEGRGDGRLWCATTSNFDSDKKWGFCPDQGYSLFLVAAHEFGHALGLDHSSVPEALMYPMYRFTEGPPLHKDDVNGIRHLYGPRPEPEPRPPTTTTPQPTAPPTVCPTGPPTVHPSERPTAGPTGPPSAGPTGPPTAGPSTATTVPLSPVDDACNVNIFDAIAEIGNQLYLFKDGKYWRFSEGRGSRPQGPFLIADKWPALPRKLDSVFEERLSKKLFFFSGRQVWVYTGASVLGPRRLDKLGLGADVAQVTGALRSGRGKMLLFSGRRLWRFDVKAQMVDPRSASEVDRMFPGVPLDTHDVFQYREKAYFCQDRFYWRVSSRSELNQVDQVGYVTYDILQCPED
T9 sequence (P78536 18-670): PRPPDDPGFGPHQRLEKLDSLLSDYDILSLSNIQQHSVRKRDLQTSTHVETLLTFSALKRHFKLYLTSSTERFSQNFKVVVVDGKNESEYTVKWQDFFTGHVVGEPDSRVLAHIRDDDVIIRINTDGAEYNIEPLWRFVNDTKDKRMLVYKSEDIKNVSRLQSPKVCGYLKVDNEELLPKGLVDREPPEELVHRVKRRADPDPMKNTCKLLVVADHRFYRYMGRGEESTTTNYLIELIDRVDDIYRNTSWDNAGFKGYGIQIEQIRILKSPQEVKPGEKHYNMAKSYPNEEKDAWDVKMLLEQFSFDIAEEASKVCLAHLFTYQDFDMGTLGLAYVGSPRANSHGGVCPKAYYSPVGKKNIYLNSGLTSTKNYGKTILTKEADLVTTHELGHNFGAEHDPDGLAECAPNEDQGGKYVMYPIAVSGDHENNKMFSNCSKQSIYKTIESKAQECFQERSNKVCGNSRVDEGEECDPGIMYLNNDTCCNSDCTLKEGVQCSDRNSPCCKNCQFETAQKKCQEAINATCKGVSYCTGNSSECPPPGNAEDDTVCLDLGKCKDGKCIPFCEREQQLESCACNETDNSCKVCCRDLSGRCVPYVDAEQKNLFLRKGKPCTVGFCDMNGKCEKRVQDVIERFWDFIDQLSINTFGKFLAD
T5 sequence (P39900 101-268): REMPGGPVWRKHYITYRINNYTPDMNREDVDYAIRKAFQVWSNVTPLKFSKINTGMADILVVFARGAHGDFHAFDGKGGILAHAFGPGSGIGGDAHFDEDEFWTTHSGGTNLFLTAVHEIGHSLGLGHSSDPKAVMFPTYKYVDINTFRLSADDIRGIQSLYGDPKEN
T7 sequence (P22894 100-262): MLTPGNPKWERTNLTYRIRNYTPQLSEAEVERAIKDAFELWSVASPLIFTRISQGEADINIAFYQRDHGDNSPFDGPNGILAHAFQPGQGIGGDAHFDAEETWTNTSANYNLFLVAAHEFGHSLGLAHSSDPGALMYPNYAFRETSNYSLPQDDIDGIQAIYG

IC50 (human MMP9): > 100 µM
IC50 (CSN5): 1.1 ± 0.5 µM
IC50 (human MMP14): > 100 µM
IC50 (human MMP2): > 100 µM
IC50 (human MMP12): > 100 µM
IC50 (human MMP13): > 100 µM
IC50 (human MMP8): > 100 µM
IC50 (Human AMSHLP): > 100 µM
IC50 (human ADAM17): > 100 µM
Structure (SMILES): N#Cc1ccc(C2C(O)CCCc3cncn32)c(-c2ccccc2Cl)c1 (stereo not drawn) [CSN5i-1b]
